Reference: patent publication EP4745153A1, “GLP-1, GIP AND GCG RECEPTOR […] USE THEREOF” (Jiangsu Hengrui Pharmaceuticals Co., Ltd., priority 2023, dated 2025)
Like-named read-outs stand apart in the source and are kept apart here. Starred links: 1 amine or outer side, 2 acyl side, 3 side chain; linkers in the order of their positions; H or OH if unused. Non-standard residues stand in square brackets, D forms with d. Residues, ends and D or L forms follow the SMILES beside them. Groups on a side chain read outwards from the residue. ξ: configuration not given here. *: point of attachment. C20 diacid = O=C(O)CCCCCCCCCCCCCCCCCCC(=O)*; γGlu = O=C(O)[C@H](CCC(=O)[*:2])N[*:1]; αMeL = CC(C)C[C@](C)(N)C(=O)O; αMeK = C[C@](N)(CCCCN)C(=O)O; ξαMeL = CC(C)CC(C)(N)C(=O)O; AEEA = NCCOCCOCC(=O)O; Aib = CC(C)(N)C(=O)O

Experiments:
human GLP-1R = target: T1, human GLP-1R (Homo sapiens, UniProt P43220); experiment: cAMP HTRF agonist activity assay in CHO-K1 cells expressing GLP-1R; format: cell-based; for Activity against human GLP-1R (EC50 nM): 5% FBS, 0.1% Casein
T1 construct: expressed in transfected cells; host or cells: CHO-K1 clonal cell line
Method: (§1) Functional activity was determined in CHO-K1 clonal cell lines expressing GIPR, GLP-1R, and GCGR. […] Each recipient cell (5000 cells/well) was added to an SV 96-well plate (Cisbio, 66PL96025) and incubated with the prepared polypeptide at 37°Cfor 30 min. The resulting increase in intracellular cAMP was quantitatively measured using the cAMP-GS dynamic HTRF assay kit (Cisbio, 62AM4PEJ). Briefly, the intracellular cAMP levels were determined by adding cAMP-d2 conjugate in cell lysis buffer, followed by the antibody anti-cAMP-Eu cryptate (also in cell lysis buffer).
(§2) Using the maximum response percentage vs. the added polypeptide concentration, the relative EC50 values were derived through nonlinear regression analysis and fitted to a four-parameter logarithmic equation. For specific data, refer to Tables 7-1 to 7-8 below. […]

human GIPR = target: T2, human GIPR (Homo sapiens, UniProt P48546); experiment: cAMP HTRF agonist activity assay in CHO-K1 cells expressing GIPR; format: cell-based; details: read-out: Activity against human GIPR (EC50 nM); note: 5% FBS, 0.1% Casein
T2 construct: expressed in transfected cells; host or cells: CHO-K1 clonal cell line
T2 sequence (P48546 22-466): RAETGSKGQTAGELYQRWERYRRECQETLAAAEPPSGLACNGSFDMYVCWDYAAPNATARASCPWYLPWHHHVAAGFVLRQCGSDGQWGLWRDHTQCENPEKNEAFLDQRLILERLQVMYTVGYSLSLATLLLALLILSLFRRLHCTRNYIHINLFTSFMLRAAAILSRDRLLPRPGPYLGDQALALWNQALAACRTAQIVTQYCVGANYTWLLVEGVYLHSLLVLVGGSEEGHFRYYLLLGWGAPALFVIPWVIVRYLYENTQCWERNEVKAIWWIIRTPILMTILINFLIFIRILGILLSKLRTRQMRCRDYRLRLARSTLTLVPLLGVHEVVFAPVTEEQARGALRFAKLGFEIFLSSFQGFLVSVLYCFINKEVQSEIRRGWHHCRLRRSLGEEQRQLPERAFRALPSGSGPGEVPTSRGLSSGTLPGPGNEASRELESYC
Method: as §1, §2

[1] = Pharmacokinetics in mice after single intravenous injection; parameters: species or system C57 mice; details: male, C57, mouse, in vivo, iv
Method: Male C57 mice were used as test animals. The target compound was administered via a single intravenous injection, and the pharmacokinetic characteristics of the compound in C57 mice in vivo (plasma) were determined.
Male C57 mice, weighing approximately 25g, aged 4-6 weeks. After preparing the polypeptide compound solution using 1×PBS dissolving solution, the compound was administered intravenously at a dose of 200 nmol/kg, where each compound was administered to 3 animals. Blood samples of 60 µL were collected at 5 min, 15 min, 0.5 h, 1 h, 2 h, 4 h, 6 h, 24 h, 48 h and 72 h after the infusion was completed and transferred to centrifuge tubes containing EDTA-K2 anticoagulant. Whole blood samples were centrifuged at 4000 g for 5 min at 4°C. Plasma was separated and plasma samples were frozen and stored at -80 °C.
Sample pretreatment method: 30 µL of plasma samples was taken, and 120 µL of 0.1% formic acid in methanol containing 1 ng/mL internal standard verapamil was added. The mixture was vortexed for 5 min, and centrifuged at 10000 rpm for 10 min at low temperature. 70 µL of supernatant was taken, and 70 µL of water was added and mixed well. Analysis was performed by LC-MS instrument.
LC-MS analysis method: (1) chromatographic conditions: mobile phases A and B: 0.1% formic acid in water and 0.1% formic acid in acetonitrile, respectively; gradient elution mode; flow rate: 0.5 mL/min; injection volume: 10 µL; chromatographic column: nanomicro Unisil C18aq (4.6 mm × 150 mm, 5 µm); column temperature: 40°C. (2) Mass spectrometry conditions: For mass spectrometry, an electrospray ionization source (ESI), positive ion analysis mode, and multiple reaction monitoring (MRM) scanning mode were used.
For data processing, SCIEX OS (Version 2.1.6) software was used to quantify blood drug concentration data and PKSolver (Version 2.0) software was used to calculate pharmacokinetic parameters.

T1 sequence (P43220 24-463): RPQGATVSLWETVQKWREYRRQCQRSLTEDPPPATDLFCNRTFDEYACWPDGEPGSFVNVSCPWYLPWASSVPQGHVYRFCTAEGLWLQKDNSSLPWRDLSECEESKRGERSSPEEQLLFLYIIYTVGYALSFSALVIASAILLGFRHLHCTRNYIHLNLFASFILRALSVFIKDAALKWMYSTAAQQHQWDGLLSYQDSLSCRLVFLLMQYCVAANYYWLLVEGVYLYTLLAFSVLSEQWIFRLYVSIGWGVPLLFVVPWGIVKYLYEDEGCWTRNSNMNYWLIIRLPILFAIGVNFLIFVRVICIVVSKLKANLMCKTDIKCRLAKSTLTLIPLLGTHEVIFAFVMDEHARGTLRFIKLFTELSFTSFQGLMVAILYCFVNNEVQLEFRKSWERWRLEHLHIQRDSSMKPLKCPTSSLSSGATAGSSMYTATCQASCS

Row | Structure (SMILES) | EC50 (human GLP-1R) | EC50 (human GLP-1R; read-out: Activity against human GLP-1R (EC50 nM)) | EC50 (human GIPR) | clearance [1] | half-life [1]
1 | CC[C@H](C)[C@H](NC(=O)[C@H](CC(C)C)NC(=O)[C@H](Cc1c[nH]c2ccccc12)NC(=O)[C@H](CCC(=O)O)NC(=O)[C@@H](NC(=O)[C@H](Cc1ccccc1)NC(=O)[C@H](CCC(=O)O)NC(=O)[C@H](CCC(N)=O)NC(=O)[C@H](C)NC(=O)[C@H](C)NC(=O)[C@H](CCCCN)NC(=O)[C@H](CCCCNC(=O)COCCOCCNC(=O)COCCOCCNC(=O)CC[C@H](NC(=O)CCCCCCCCCCCCCCCCCCC(=O)O)C(=O)O)NC(=O)[C@H](CCC(=O)O)NC(=O)[C@H](CC(C)C)NC(=O)[C@H](Cc1ccc(O)cc1)NC(=O)[C@](C)(CCCCN)NC(=O)[C@H](CO)NC(=O)[C@H](Cc1ccc(O)cc1)NC(=O)[C@H](CC(=O)O)NC(=O)[C@H](CO)NC(=O)[C@@H](NC(=O)[C@H](Cc1ccccc1)NC(=O)[C@@H](NC(=O)CNC(=O)[C@H](Cc1c[nH]cn1)NC(=O)C(C)(C)NC(=O)[C@@H](N)Cc1c[nH]cn1)[C@@H](C)O)[C@@H](C)O)C(C)C)C(=O)N[C@@H](CCC(=O)O)C(=O)NCC(=O)NCC(=O)N1CCC[C@H]1C(=O)N[C@@H](CO)C(=O)N[C@@H](CO)C(=O)NCC(=O)N[C@@H](C)C(=O)N1CCC[C@H]1C(=O)N1CCC[C@H]1C(=O)N1CCC[C@H]1C(=O)N[C@@H](CO)C(N)=O [Compound 0115] (H-H[Aib]HGTFTSDYS[αMeK]YLEK([AEEA-AEEA-γGlu-C20 diacid])KAAQEFVEWLIEGGPSSGAPPPS-NH2) | 0.023 nM | – | – | – | –
2 | CC(C)C[C@H](NC(=O)[C@H](CC(C)C)NC(=O)[C@H](Cc1c[nH]c2ccccc12)NC(=O)[C@H](CCC(=O)O)NC(=O)[C@@H](NC(=O)[C@H](Cc1ccccc1)NC(=O)[C@H](CCC(=O)O)NC(=O)[C@H](CCC(N)=O)NC(=O)[C@H](C)NC(=O)C(C)(C)NC(=O)[C@H](CCCCN)NC(=O)[C@H](CCCCNC(=O)COCCOCCNC(=O)COCCOCCNC(=O)CC[C@H](NC(=O)CCCCCCCCCCCCCCCCCCC(=O)O)C(=O)O)NC(=O)[C@H](CCC(=O)O)NC(=O)[C@H](CC(C)C)NC(=O)[C@H](Cc1ccc(O)cc1)NC(=O)[C@H](CCCCN)NC(=O)[C@H](CO)NC(=O)[C@H](Cc1ccc(O)cc1)NC(=O)[C@H](CC(=O)O)NC(=O)[C@H](CO)NC(=O)[C@@H](NC(=O)[C@H](Cc1ccccc1)NC(=O)[C@@H](NC(=O)CNC(=O)[C@H](Cc1c[nH]cn1)NC(=O)C(C)(C)NC(=O)[C@@H](N)Cc1c[nH]cn1)[C@@H](C)O)[C@@H](C)O)C(C)C)C(=O)N[C@@H](C)C(=O)NCC(=O)NCC(=O)N1CCC[C@H]1C(=O)N[C@@H](CO)C(=O)N[C@@H](CO)C(=O)NCC(=O)N[C@@H](C)C(=O)N1CCC[C@H]1C(=O)N1CCC[C@H]1C(=O)N1CCC[C@H]1C(=O)N[C@@H](CO)C(N)=O [Compound 0110] (H-H[Aib]HGTFTSDYSKYLEK([AEEA-AEEA-γGlu-C20 diacid])K[Aib]AQEFVEWLLAGGPSSGAPPPS-NH2) | – | 0.016 nM | – | – | –
3 | CC[C@H](C)[C@H](NC(=O)[C@H](CO)NC(=O)[C@H](CC(C)C)NC(=O)[C@H](CC(=O)O)NC(=O)[C@H](CO)NC(=O)[C@@H](NC(=O)[C@H](Cc1ccccc1)NC(=O)[C@@H](NC(=O)CNC(=O)[C@H](Cc1c[nH]cn1)NC(=O)C(C)(C)NC(=O)[C@@H](N)Cc1c[nH]cn1)[C@@H](C)O)[C@@H](C)O)C(=O)N[C@@](C)(CC(C)C)C(=O)N[C@@H](CC(C)C)C(=O)N[C@@H](CCC(=O)O)C(=O)N[C@@H](CCCCNC(=O)COCCOCCNC(=O)COCCOCCNC(=O)CC[C@H](NC(=O)CCCCCCCCCCCCCCCCCCC(=O)O)C(=O)O)C(=O)N[C@@H](CCCCN)C(=O)N[C@@H](C)C(=O)N[C@@H](C)C(=O)N[C@@H](CCC(N)=O)C(=O)N[C@@H](CCC(=O)O)C(=O)N[C@@H](Cc1ccccc1)C(=O)N[C@H](C(=O)N[C@@H](CCC(=O)O)C(=O)N[C@@H](Cc1c[nH]c2ccccc12)C(=O)N[C@@H](CC(C)C)C(=O)N[C@@H](CC(C)C)C(=O)N[C@@H](C)C(=O)N[C@H](CCC(=O)O)C(=O)NCC(=O)N1CCC[C@H]1C(=O)N[C@@H](CO)C(=O)N[C@@H](CO)C(=O)NCC(=O)N[C@@H](C)C(=O)N1CCC[C@H]1C(=O)N1CCC[C@H]1C(=O)N1CCC[C@H]1C(=O)N[C@@H](CO)C(N)=O)C(C)C [Compound 0142] (H-H[Aib]HGTFTSDLSI[αMeL]LEK([AEEA-AEEA-γGlu-C20 diacid])KAAQEFVEWLLA[dE]GPSSGAPPPS-NH2) | – | – | 0.007 nM | 5.52 mL/h/kg | 10.5 h
4 | CC[C@H](C)[C@H](NC(=O)[C@H](CO)NC(=O)[C@H](Cc1ccc(O)cc1)NC(=O)[C@H](CC(=O)O)NC(=O)[C@H](CO)NC(=O)[C@@H](NC(=O)[C@H](Cc1ccccc1)NC(=O)[C@@H](NC(=O)CNC(=O)[C@H](Cc1c[nH]cn1)NC(=O)C(C)(C)NC(=O)[C@@H](N)Cc1c[nH]cn1)[C@@H](C)O)[C@@H](C)O)C(=O)N[C@@](C)(CC(C)C)C(=O)N[C@@H](CC(C)C)C(=O)N[C@@H](CCC(=O)O)C(=O)N[C@@H](CCCCNC(=O)COCCOCCNC(=O)COCCOCCNC(=O)CC[C@H](NC(=O)CCCCCCCCCCCCCCCCCCC(=O)O)C(=O)O)C(=O)N[C@@H](CCCCN)C(=O)N[C@@H](C)C(=O)N[C@@H](C)C(=O)N[C@@H](CCC(N)=O)C(=O)N[C@@H](CCC(=O)O)C(=O)N[C@@H](Cc1ccccc1)C(=O)N[C@H](C(=O)N[C@@H](CCC(=O)O)C(=O)N[C@@H](Cc1c[nH]c2ccccc12)C(=O)N[C@@H](CC(C)C)C(=O)N[C@@H](CC(C)C)C(=O)N[C@@H](C)C(=O)N[C@H](CCC(=O)O)C(=O)NCC(=O)N1CCC[C@H]1C(=O)N[C@@H](CO)C(=O)N[C@@H](CO)C(=O)NCC(=O)N[C@@H](C)C(=O)N1CCC[C@H]1C(=O)N1CCC[C@H]1C(=O)N1CCC[C@H]1C(=O)N[C@@H](CO)C(N)=O)C(C)C [Compound 0139] | – | – | 0.007 nM | 4.86 mL/h/kg | 11.9 h
5 | CC[C@H](C)[C@H](NC(=O)[C@H](CO)NC(=O)[C@H](CC(C)C)NC(=O)[C@H](CC(=O)O)NC(=O)[C@H](CO)NC(=O)[C@@H](NC(=O)[C@H](Cc1ccccc1)NC(=O)[C@@H](NC(=O)CNC(=O)[C@H](Cc1c[nH]cn1)NC(=O)C(C)(C)NC(=O)[C@@H](N)Cc1c[nH]cn1)[C@@H](C)O)[C@@H](C)O)C(=O)NC(C)(CC(C)C)C(=O)N[C@@H](CC(C)C)C(=O)N[C@@H](CCC(=O)O)C(=O)N[C@@H](CCCCNC(=O)COCCOCCNC(=O)COCCOCCNC(=O)CC[C@H](NC(=O)CCCCCCCCCCCCCCCCCCC(=O)O)C(=O)O)C(=O)N[C@@H](CCCCN)C(=O)N[C@@H](C)C(=O)N[C@@H](C)C(=O)N[C@@H](CCC(N)=O)C(=O)N[C@@H](CCC(=O)O)C(=O)N[C@@H](Cc1ccccc1)C(=O)N[C@H](C(=O)N[C@@H](CCC(=O)O)C(=O)N[C@@H](Cc1c[nH]c2ccccc12)C(=O)N[C@@H](CC(C)C)C(=O)N[C@@H](CC(C)C)C(=O)N[C@@H](C)C(=O)NCC(=O)NCC(=O)N1CCC[C@H]1C(=O)N[C@@H](CO)C(=O)N[C@@H](CO)C(=O)NCC(=O)N[C@@H](C)C(=O)N1CCC[C@H]1C(=O)N1CCC[C@H]1C(=O)N1CCC[C@H]1C(=O)N[C@@H](CO)C(N)=O)C(C)C (some centres unmarked) [Compound 0143] (H-H[Aib]HGTFTSDLSI[ξαMeL]LEK([AEEA-AEEA-γGlu-C20 diacid])KAAQEFVEWLLAGGPSSGAPPPS-NH2) | – | – | 0.004 nM | 2.82 mL/h/kg | 13.7 h
